Assay results taken from patent publication US6142972A, “Method and apparatus for the delivery of elongate solid drug compositions” (Delab, priority 1998, dated 2000).

Columns and labels:
[1] = Pharmacokinetics of SOMATULINE™ filament vs liquid solution in dogs (FIGS. 4A and 4B); assay type: in vivo; conditions: dog, blood
Experimental: FIGS. 4A and 4B are graphs showing the blood level in a dog of a somatostatin analog, SOMATULINE™ (BIM-23014C, Biomeasure, Milford Mass.) after implantation of a solid filament compared to a liquid solution of BIM-23014C.
The above protocol was performed by mixing 1.500 g of HEC and 8.500 g of water. 0.42250 g of the resulting gel was added to 0.06395 g of BIM 23014. The mixture was extruded through a […] (0.3 mm internal diameter needle), collected, and dried under vacuum for 24 hours. The dried filament contained 0.107 mg of BIM 23014/cm (weight percentage 50% HEC and 50% BIM 23014).
The filaments were tested for pharmacokinetics and compared to liquid infusions of the same dosage of SOMATULINE™ in dogs. The results are shown in the graphs in FIGS. 4A, 4B, and 5. […] However, the blood concentration decreased to less than 0.1 ng/ml within about 2 hours, to less than 0.001 within about 8 hours, and to about 0.0005 ng/ml in less than 12 hours. On the other hand, the blood concentration of SOMATULINE™ provided by the solid drug filament was at an almost constant level over 0.1 ng/ml for the first 10 hours, declined to about 0.002 ng/ml within 24 hours, and declined further to 0.0005 ng/ml by 72 hours.

[2] = pure insulin, depending on purity; cited from earlier work

Row | Compound | concentration at 10 h ([1]; solid drug filament, first 10 hours, read-out: blood concentration of SOMATULINE™ (almost constant level)) | concentration at 24 h ([1]; solid drug filament, within 24 hours) | C0 ([1]; solution formulation, initial, read-out: blood concentration of SOMATULINE™, initial) | concentration at 2 h ([1]; solution formulation, within about 2 hours) | concentration at 8 h ([1]; solution formulation, within about 8 hours) | Insulin Units (IU) per mg [2]
1 | CC(C)[C@@H]1NC(=O)[C@H](CCCCN)NC(=O)[C@@H](Cc2c[nH]c3ccccc23)NC(=O)[C@H](Cc2ccc(O)cc2)NC(=O)[C@@H](NC(=O)[C@H](N)Cc2ccc3ccccc3c2)CSSC[C@@H](C(=O)N[C@H](C(N)=O)[C@@H](C)O)NC1=O [SOMATULINE™] | > 0.1 ng/mL | ~0.002 ng/mL | ~0.5 ng/mL | < 0.1 ng/mL | < 0.001 ng/mL | –
2 | recombinant human insulin: pure insulin, e.g., recombinant human insulin | – | – | – | – | – | 26 to 28 Insulin Units (IU) per mg
